Reference: ChEMBL document CHEMBL5120822, “Inhibition of the P2X7/NLRP3 Inflammasome Signaling Pathway by Deacetylgedunin from Toona sinensis” (J Nat Prod, 2022)
pIC50: −log10 of the molar value. Calls of active or inactive are those of the source. No cut-off for these calls is given here.

Assays:
[1] = test system: THP-1; experiment: Cytotoxicity against human THP-1 cells derived macrophage assessed as reduction in cell viability upto 40 uM incubated for 24 hrs by CCK-8 assay; type: toxicity, cell-based; settings: thp-1, 24 h
[2] = test system: J774.1; experiment: Cytotoxicity against mouse J774.1 cells derived macrophage assessed as reduction in cell viability upto 40 uM incubated for 24 hrs by CCK-8 assay; type: toxicity, cell-based; settings: j774.1, 24 h
[3] = test system: RAW264.7; experiment: Antiinflammatory activity in mouse RAW264.7 assessed as inhibition of LPS-induced NO production incubated for 1 hrs followed by LPS stimulation for 18 hrs by Griess reagent based assay; type: functional, cell-based
[4] = test system: THP-1; experiment: Antiinflammatory activity against PMA-differentiated human THP-1 cells assessed as reduction in IL-1beta level at 20 uM incubated for 1 hrs followed by LPS stimulation for 12 hrs and ATP addition for 0.5 hrs by ELISA; type: functional, cell-based; settings: time 13.5 hrs
[5] = test system: RAW264.7; experiment: Cytotoxicity against mouse RAW264.7 cells derived macrophage assessed as reduction in cell viability upto 40 uM incubated for 24 hrs by CCK-8 assay; type: toxicity, cell-based; settings: raw264.7, 24 h

Structure (SMILES) | Activity [1] | Activity [2] | pIC50 [3] | Activity [4] | Activity [5]
CC(=O)O[C@@H]1C[C@H]2C(C)(C)C(=O)C=C[C@]2(C)[C@H]2CC[C@@]3(C)[C@@H](c4ccoc4)OC(=O)[C@H]4O[C@]43[C@@]21C | Toxic | Toxic | 5.05 | Active | Toxic
CC1(C)C(=O)C=C[C@]2(C)[C@H]3CC[C@@]4(C)[C@H](c5ccoc5)OC(=O)[C@H]5O[C@]54[C@]3(C)C(=O)C[C@@H]12 [DEACETOXY-7-OXOGEDUNIN] | Toxic |  | 5.02 | Active | Toxic
